Reference: patent US6867192B1, “Compounds useful in the treatment of inflammatory diseases” (priority 1998, dated 2005)

biological target: T1, integrin VLA-4, expressed on the Jurkat J6 (human lymphoblast cell line) cell membrane with VCAM-1 (Homo sapiens, UniProt P05556+P13612); test: Jurkat J6/VCAM-1 adhesion assay; type: cell-based; conditions: Jurkat J6 cell adhesion to VCAM-1, 1 mM MnCl2; mean of n experiments
T1 construct: integrin VLA-4, expressed on the Jurkat J6 (human lymphoblast cell line) cell membrane; endogenous in cells; host or cells: Jurkat J6 cells (integrin). zzVCAM-1 was made in house in Drosophila melanogaster S2 cells
Procedure: (1) Jurkat J6/VCAM-1 Adhesion Assay
This assay was used to investigate the interaction of the integrin VLA-4, expressed on the Jurkat J6 (human lymphoblast cell line) cell membrane with VCAM-1. Polystyrene 96-well microtitre plates were coated with human immunoglobulin G (IgG; Sigma Chemicals, UK, Product No. 14506) at a concentration of 0.05 mg ml^−1 in bicarbonate buffer (36 mM NaHCO3 and 22 mM Na2CO3, prepared in Dulbecco's phosphate buffered saline at pH 9.8 (PBS); Sigma Chemicals, UK, Product No. 14190-094) for 2 hours at 37° C. This solution was then aspirated and the plates were washed twice with PBS.
VCAM-1 was prepared by cloning its constituent seven domains into a Drosophila expression system with a zz (Protein A) tag. This zzVCAM-1 was then expressed from Drosophila melanogaster S2 cell culture, induced with copper. Protease inhibitors were added and the culture supernatant was clarified either by filtration through a 0.2 μm filter or by centrifugation. The zzVCAM-1 was then purified from this clarified medium using an IgG agarose column, equilibrated with either 20 mM sodium phosphate pH 7.2 alone or in the presence of 0.5M sodium chloride. Elution of zzVCAM-1 from the column was mediated using 3M ammonium thiocyanate, which was subsequently removed using a G25 desalting column, equilibrated with 20 mM sodium phosphate, pH 7.2. The purified zzVCAM-1 was then concentrated to a small volume (Amicon stirred cell concentrators) until a concentration of 62.5 ng ml^−1 was obtained, calculated using the extinction coefficient value.
This solution of zzVCAM-1 was then incubated overnight at 4° C. in the IgG coated microtitre plates with 3% bovine serum albumin (BSA) in PBS, followed by aspiration and two further washes with PBS. A concentration of the Jurkat J6 cells (6×10^6 cels ml^−1), grown in cell media RPMI 1640 (HyClone Ltd, Product No. B-9106-L) supplemented with 10% heat inactivated fetal calf serum (FCS; Gibco BRL, Product No. 10099-075) and 2 mM L-glutamine, were labelled with 10 μM of the fluorescent dye, 2′, 7′-bis(2-carboxyethyl)-5-(e6)-carboxyfluorescein acetoxymethyl ester (BCECF-AM; Molecular Probes Inc, Product No. B-1150) at 37° C. for 10 minutes. The excess dye was then removed by centrifugation at 500×g for 5 minutes and the cells were resuspended at a concentration of 1.2×10^7 cells ml^−1 in Hank's balanced salt solution (HBSS; Gibco BRL, Product No. 14190-094).
Equal volumes of compounds (dissolved in an appropriate solvent and diluted in HBSS containing 1 mM MnCl2) and the labelled Jurkat J6 cells, were added to the VCAM-1 coated plates and adhesion was allowed to proceed for 30 minutes at 37° C. Non, or loosely adhered cells, were removed by inversion of the plate and blotted with tissue paper. Two washes with PBS and further blotting were then performed, before the addition of 2% detergent (Triton-X®; Sigma Chemicals UK, Product No. X100). Counting was undertaken in a Wallac Viktor™ Fluorimeter, where low fluorescence values were indicative of compounds which had inhibited adhesion. All samples were assayed in singlicate and the following four parameter curve fit, shown by Equation (I) was applied: [formula]
Where a is the minimum, b is the Hill slope, c is the IC50 and d is the maximum. (Maximum and minimum values are those compared to adhesion in the absence of compound and in the presence of the dipotassium salt of 2 mM EDTA; Sigma Chemicals, UK, Product No. ED2P). Data is presented as the mean pIC50 with the standard error of the mean of n experiments.

T1 sequence (P13612 34-1032): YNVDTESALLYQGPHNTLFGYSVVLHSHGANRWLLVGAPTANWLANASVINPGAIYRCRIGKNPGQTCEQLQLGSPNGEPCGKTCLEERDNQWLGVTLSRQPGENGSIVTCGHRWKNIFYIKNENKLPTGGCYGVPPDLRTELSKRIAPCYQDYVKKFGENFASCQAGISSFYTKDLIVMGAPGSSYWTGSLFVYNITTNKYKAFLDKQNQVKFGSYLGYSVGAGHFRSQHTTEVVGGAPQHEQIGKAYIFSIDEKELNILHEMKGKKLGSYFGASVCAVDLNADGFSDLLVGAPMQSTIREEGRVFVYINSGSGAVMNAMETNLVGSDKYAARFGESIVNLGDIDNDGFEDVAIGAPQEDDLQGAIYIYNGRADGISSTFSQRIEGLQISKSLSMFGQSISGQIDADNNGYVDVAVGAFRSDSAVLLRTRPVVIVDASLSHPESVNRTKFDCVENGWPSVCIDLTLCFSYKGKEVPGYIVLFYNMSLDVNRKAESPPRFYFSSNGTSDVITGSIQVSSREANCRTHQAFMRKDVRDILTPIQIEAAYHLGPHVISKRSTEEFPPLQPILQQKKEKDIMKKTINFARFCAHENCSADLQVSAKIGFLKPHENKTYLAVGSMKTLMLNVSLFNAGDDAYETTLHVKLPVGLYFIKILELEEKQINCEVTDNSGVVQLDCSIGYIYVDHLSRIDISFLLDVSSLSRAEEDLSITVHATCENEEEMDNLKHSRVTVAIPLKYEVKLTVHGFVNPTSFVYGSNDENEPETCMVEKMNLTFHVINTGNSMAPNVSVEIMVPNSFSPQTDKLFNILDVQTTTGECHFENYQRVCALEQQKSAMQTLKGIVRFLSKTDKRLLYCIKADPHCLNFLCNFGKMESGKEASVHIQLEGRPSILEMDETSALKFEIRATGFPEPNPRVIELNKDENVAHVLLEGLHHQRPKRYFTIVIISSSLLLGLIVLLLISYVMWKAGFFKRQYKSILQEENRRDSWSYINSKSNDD
T1 sequence (P05556 21-798): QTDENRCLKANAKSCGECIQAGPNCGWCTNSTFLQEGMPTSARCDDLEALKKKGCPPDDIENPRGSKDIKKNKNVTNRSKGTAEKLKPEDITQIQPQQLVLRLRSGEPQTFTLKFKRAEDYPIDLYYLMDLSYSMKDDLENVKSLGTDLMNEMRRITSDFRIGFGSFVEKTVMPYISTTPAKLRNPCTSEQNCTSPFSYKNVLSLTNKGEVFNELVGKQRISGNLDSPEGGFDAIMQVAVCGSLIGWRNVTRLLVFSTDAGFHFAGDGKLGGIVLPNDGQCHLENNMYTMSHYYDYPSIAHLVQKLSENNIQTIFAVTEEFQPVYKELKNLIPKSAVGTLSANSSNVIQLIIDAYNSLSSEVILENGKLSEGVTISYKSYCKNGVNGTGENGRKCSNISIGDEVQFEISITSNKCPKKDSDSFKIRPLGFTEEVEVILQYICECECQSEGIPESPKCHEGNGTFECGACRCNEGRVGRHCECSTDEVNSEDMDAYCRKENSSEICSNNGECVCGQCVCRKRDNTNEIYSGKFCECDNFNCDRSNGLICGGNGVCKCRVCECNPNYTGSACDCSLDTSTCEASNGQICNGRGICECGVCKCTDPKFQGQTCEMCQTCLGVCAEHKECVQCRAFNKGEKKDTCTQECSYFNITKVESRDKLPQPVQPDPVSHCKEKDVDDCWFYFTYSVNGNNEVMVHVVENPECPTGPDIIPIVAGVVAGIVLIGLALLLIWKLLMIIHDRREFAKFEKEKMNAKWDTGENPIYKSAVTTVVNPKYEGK

| IC50 [nM] | SMILES |
| --- | --- |
| 5.75 | Cc1ccccc1OCC(=O)N[C@@H](CC(C)C)C(=O)N[C@@H](Cc1ccc(OC(=O)N2CCC(C(=O)N3CCCCC3)CC2)cc1)C(=O)O [Example 30, (2S)-2-[((2S)-4-Methyl-2-{[2-(2-methylphenoxy)acetyl]amino}pentanoyl)amino]-3-[4-({[4-(1-piperidinylcarbonyl)-1-piperidinyl]carbonyl}oxy)phenyl]propanoic acid] |
| 25.7 | CC(C)C[C@H](NC(=O)c1cccc2c1oc1ccccc12)C(=O)N[C@@H](Cc1ccc(OC(=O)N2CCC(C(=O)N3CCCCC3)CC2)cc1)C(=O)O [Example 31, (2S)-2-({(2S)-2-[(Dibenzo[b,d]furan-4-ylcarbonyl)amino]-4-methylpentanoyl}amino)-3-[4-({[4-(1-piperidinylcarbonyl)-1-piperidinyl]carbonyl}oxy)phenyl]propanoic acid] |
| 24 | CC(C)C[C@H](NC(=O)COc1ccc2ccccc2c1Br)C(=O)N[C@@H](Cc1ccc(OC(=O)N2CCC(C(=O)N3CCCCC3)CC2)cc1)C(=O)O [Example 32, (2S)-2-{[(2S)-2-({2-[(1-Bromo-2-naphthyl)oxy]acetyl}amino)-4-methylpentanoyl]amino}-3-[4-({[4-(1-piperidinylcarbonyl)-1-piperidinyl]carbonyl}oxy)phenyl]propanoic acid] |
| 3.47 | CC(C)C[C@H](NC(=O)COc1ccccc1C(C)(C)C)C(=O)N[C@@H](Cc1ccc(OC(=O)N2CCC(C(N)=O)CC2)cc1)C(=O)O [Example 33, (2S)-3-[4-({[4-(Aminocarbonyl)-1-piperidinyl]carbonyl}oxy)phenyl]-2-{[(2S)-2-({2-[2-(tert-butyl)phenoxy]acetyl}amino)-4-methylpentanoyl]amino}propanoic acid] |
| 26.9 | CC(C)C[C@H](NC(=O)COc1ccccc1C(C)(C)C)C(=O)N[C@@H](Cc1ccc(OC(=O)N2CCC(C(=O)NCc3ccc(F)cc3)CC2)cc1)C(=O)O [Example 34, (2S)-2-{[(2S)-2-({2-[2-(Tert-butyl)phenoxy]acetyl}amino)-4-methylpentanoyl]amino}-3-(4-{[(4-{[(4-fluorobenzyl)amino]carbonyl}-1-piperidinyl)carbonyl]oxy}phenyl)propanoic acid] |
| 6.61 | CC(C)C[C@H](NC(=O)COc1ccc(Cl)cc1Cl)C(=O)N[C@@H](Cc1ccc(OC(=O)N2CCOCC2)cc1)C(=O)O [Example 35, (2S)-2-[((2S)-2-{[2-(2,4-Dichlorophenoxy)acetyl]amino}-4-methylpentanoyl)amino]-3-{4-[(4-morpholinylcarbonyl)oxy]phenyl}propanoic acid] |

Further lines, the compound ahead of its results:

| SMILES | IC50 [nM] |
| --- | --- |
| CC(C)C[C@H](NC(=O)c1cccc2c1oc1ccccc12)C(=O)N[C@@H](Cc1ccc(OC(=O)N2CCOCC2)cc1)C(=O)O [Example 10, (2S)-2-({(2S)-2-[(Dibenzo[b,d]furan-4-ylcarbonyl)amino]-4-methylpentanoyl}amino)-3-{4-[(4-morpholinylcarbonyl)oxy]phenyl}propanoic acid] | 8.32 |
| CC(C)C[C@H](NC(=O)c1cccc2c1oc1ccccc12)C(=O)N[C@@H](Cc1ccc(OC(=O)N2CCN(C(=O)c3ccco3)CC2)cc1)C(=O)O [Example 11, (2S)-2-({(2S)-2-[(Dibenzo[b,d]furan-4-ylcarbonyl)amino]-4-methylpentanoyl}amino)-3-[4-({[4-(2-furoyl)-1-piperazinyl]carbonyl}oxy)phenyl]propanoic acid] | 8.32 |
| CC(C)C[C@H](NC(=O)c1cccc2c1oc1ccccc12)C(=O)N[C@@H](Cc1ccc(OC(=O)N2CCN(C(=O)c3ccccc3)CC2)cc1)C(=O)O [Example 12, (2S)-3-(4-{[(4-Benzoyl-1-piperazinyl)carbonyl]oxy}phenyl)-2-({(2S)-2-[(dibenzo[b,d]furan-4-ylcarbonyl)amino]-4-methylpentanoyl}amino)propanoic acid] | 11 |
| CC(C)C[C@H](NC(=O)c1cccc2c1oc1ccccc12)C(=O)N[C@@H](Cc1ccc(OC(=O)N2CCC(NC(=O)Cc3ccccc3)CC2)cc1)C(=O)O [Example 13, (2S)-2-({(2S)-2-[(Dibenzo[b,d]furan-4-ylcarbonyl)amino]-4-methylpentanoyl}amino)-3-{4-[({4-[(2-phenylacetyl)amino]-1-piperidinyl}carbonyl)oxy]phenyl}propanoic acid] | 25.7 |
| CC(C)C[C@H](NC(=O)COc1ccccc1I)C(=O)N[C@@H](Cc1ccc(OC(=O)N2CCC(NC(=O)Cc3ccccc3)CC2)cc1)C(=O)O [Example 14, (2S)-2-[((2S)-2-{[2-(2-Iodophenoxy)acetyl]amino}-4-methylpentanoyl)amino]-3-{4-[({4-[(2-phenylacetyl)amino]-1-piperidinyl}carbonyl)oxy]phenyl}propanoic acid] | 16.6 |
| CC(=O)N1CCN(C(=O)Oc2ccc(C[C@H](NC(=O)[C@H](CC(C)C)NC(=O)COc3ccccc3I)C(=O)O)cc2)CC1 [Example 15, (2S)-3-(4-{[(4-Acetyl-1-piperazinyl)carbonyl]oxy}phenyl)-2-[((2S)-2-{[2-(2-iodophenoxy)acetyl]amino}-4-methylpentanoyl)amino]propanoic acid] | 2.69 |
| CC(=O)N1CCN(C(=O)Oc2ccc(C[C@H](NC(=O)[C@H](CC(C)C)NC(=O)c3cccc4c3oc3ccccc34)C(=O)O)cc2)CC1 [Example 18, (2S)-3-(4-{[(4-Acetyl-1-piperazinyl)carbonyl]oxy}phenyl)-2-({(2S)-2-[(dibenzo[b,d]furan-4-ylcarbonyl)amino]-4-methylpentanoyl}amino)propanoic acid] | 3.72 |
| CC(C)C[C@H](NC(=O)COc1ccccc1I)C(=O)N[C@@H](Cc1ccc(OC(=O)N2CCN(C(=O)c3ccccc3)CC2)cc1)C(=O)O [Example 19, (2S)-3-(4-{[(4-Benzoyl-1-piperazinyl)carbonyl]oxy}phenyl)-2-[((2S)-2-{[2-(2-iodophenoxy)acetyl]amino}-4-methylpentanoyl)amino]propanoic acid] | 7.59 |
| CC(C)C[C@H](NC(=O)COc1ccc(Cl)cc1Cl)C(=O)N[C@@H](Cc1ccc(OC(=O)N2CCN(C(=O)c3ccccc3)CC2)cc1)C(=O)O [Example 22, (2S)-3-(4-{[(4-Benzoyl-1-piperazinyl)carbonyl]oxy}phenyl)-2-[((2S)-2-{[2-(2,4-dichlorophenoxy)acetyl]amino}-4-methylpentanoyl)amino]propanoic acid] | 22.4 |
| Cc1ccccc1OCC(=O)N[C@@H](CC(C)C)C(=O)N[C@@H](Cc1ccc(OC(=O)N2CCOCC2)cc1)C(=O)O [Example 25, (2S)-2-[((2S)-4-Methyl-2-{[2-(2-methylphenoxy)acetyl]amino}pentanoyl)amino]-3-{4-[(4-morpholinylcarbonyl)oxy]phenyl}propanoic acid] | 3.16 |
| CC(C)C[C@H](NC(=O)COc1ccccc1I)C(=O)N[C@@H](Cc1ccc(OC(=O)N2CCC(C(N)=O)CC2)cc1)C(=O)O [Example 26, (2S)-3-[4-({[4-(Aminocarbonyl)-1-piperidinyl]carbonyl}oxy)phenyl]-2-[((2S)-2-{[2-(2-iodophenoxy)acetyl]amino}-4-methylpentanoyl)amino]propanoic acid] | 2.95 |
| CC(C)C[C@H](NC(=O)COc1ccccc1C(C)(C)C)C(=O)N[C@@H](Cc1ccc(OC(=O)N2CCC(C(=O)N3CCCCC3)CC2)cc1)C(=O)O [Example 29, (2S)-2-{[(2S)-2-({2-[2-(Tert-butyl)phenoxy]acetyl}amino)-4-methylpentanoyl]amino}-3-[4-({[4-(1-piperidinylcarbonyl)-1-piperidinyl]carbonyl}oxy)phenyl]propanoic acid] | 16.2 |
